Measured values reported in PubChem BioAssay AID652267 (Sanford-Burnham Center for Chemical Genomics, 2013).
Calls of active or inactive are those of the source.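 The calls were made as follows: active = compound that lowers ATP signal in parent HT1080 cells at potency within fivefold of its primary screen potency; inactive = the rest.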

Tested on: HT1080 viability, ATPLite luminescence, overnight
Assay: viability loss in HT1080 cells – cell-based, ATPLite luminescence, cytotoxicity control for MT1-MMP activation inhibitor project, SAR follow-up (AID 652267)

| Structure (SMILES) | IC50 |
| --- | --- |
| COc1ccc(C)cc1Nc1nc(-c2c(C)[nH]c3ccccc23)cs1 | > 80 µM (inactive) |
| CN1/C(=C/C=C/c2n(C)c3cc([N+](=O)[O-])c([N+](=O)[O-])cc3[n+]2C)C(C)(C)c2ccccc21 | 40.2 µM (inactive) |
| CCn1c(=O)c(=O)[nH]c2cc(C(=O)NC3CCCc4ccccc43)ccc21 (stereo unspecified) | 15.5 µM |
| CN1/C(=C\C(=O)c2cncc(Br)c2)C(C)(C)c2ccccc21 | > 80 µM (inactive) |
| Cc1c(C(=O)OCC(=O)NCC2CCCO2)oc2ccccc12 (stereo unspecified) | 30.3 µM (inactive) |
| O=Nc1c(-c2c(O)[nH]c3cc(Br)ccc23)[nH]c2ccccc12 | 36.9 µM (inactive) |
